This note sets out measurements from patent publication US20160312240A1, “MODIFIED PYR/PYL RECEPTORS ACTIVATED BY ORTHOGONAL LIGANDS” (The Regents of the University of California, priority 2010, published 2016).

Molecules are shown by their SMILES.

The target of assay [1] is T1, 6×-His-PYR1(27-18) (S47P, K59R, Y120H) (Arabidopsis thaliana, UniProt O49686, K59R/S47P/Y120H).
T1 construct: 6x-His (N); made in house
Kind of assay: In vitro PP2C phosphatase activity assay (receptor activation = inhibition of PP2C). It is filed as biochemical. The settings on record: mutant 27-18; increasing concentrations; 10 mM Mn++ buffer; FIG. 1. The procedure: FIGS. 1A-1B. PYR1 mutant 27-18 confers responsiveness to fenhexamid but not ABA. Representative PYR1 mutant 27-18 (comprising S47P, K59R, and Y120H substitution mutations) was tested for responsiveness to abscisic acid (“ABA”) (FIG. 1A) and fenhexamid (FIG. 1B) at increasing concentrations as compared to a wild-type PYR1 control using an in vitro PP2C phosphatase activity assay.
To probe orthogonal receptor-ligand interactions further, recombinant protein was expressed for the fenhexamid-responsive mutant 27-18, which has three mutations in PYR1. 6×-His-PYR1(27-18) protein was expressed and purified alongside wild-type PYR1 protein. Both proteins were tested for their ability to inhibit PP2C activity in response to increasing concentrations of either ABA or fenhexamid using phosphatase activity assays, in which activation of the PYR/PYL receptor is monitored by inhibition of PP2C activity (FIG. 1).

For a further assay, the target named is T2, PYL2 K64R,Y124H,M164I (Arabidopsis thaliana, UniProt O80992, K64R/M164I/Y124H).
T2 construct: expressed in transfected cells; host or cells: Saccharomyces cerevisiae Y190 pAD-HAB1
As to the kind of experiment: Yeast two-hybrid assay, strain Y190 pAD-HAB1, X-gal staining. It is filed as cell-based. The settings on record: FIG. 3A. As for the experimental part: (§1) FIGS. 3A-3B. […] FIG. 3A. […] In addition, pocket residue mutations at V114I and/or V67I were introduced. The mutants (listed on left side of panel) were constructed in pBD-PYL2 and transformed into Y190 pAD-HAB1 yeast cells. The transformants were then grown on increasing concentrations of fenhexamid and scored for responsiveness using X-gal staining, performed as described in Park et al., 2009. […] FIG. 3B. In vitro characterization of PYL2 K64R, Y124H, M164I, V67I, V114I mutant. Recombinant wild-type and mutant PYL2 proteins were produced as described previously and used in PP2C assays, as described previously (Park et al., 2009), with the exception that a 2:1 ratio of receptor for phosphatase was used.
(§2) PYR1 is a member of the PYR/PYL receptor protein family, which in Arabidopsis contains 14 members. […] Given the conserved nature of these residues, we speculated that fenhexamid sensitivity could be engineered into other receptor family members by mutating homologous residues in other PYR/PYL receptors. To test this, we introduced the homologous mutations in PYL2 (K64R, corresponding to K59R in PYR1; Y124H, corresponding to Y120H in PYR1; and M164I, corresponding to M158I in PYR1), creating the mutant PYL2^K64R,Y124H,M164I. […]

Assay [2] deals with T3, PYL2 K64R,Y124H,M164I,V67I,V114I (Arabidopsis thaliana, UniProt O80992, K64R/M164I/V114I/V67I/Y124H).
T3 construct: expressed in transfected cells; host or cells: Saccharomyces cerevisiae Y190 pAD-HAB1
Described as above. It is filed as cell-based. The settings on record: FIG. 3A. The procedure:
as §1, §2

In assay [3] the test system is 35S::GFP-PYL2 K64R,Y124H,M164I,V67I,V114I transgenic plants. As to the kind of experiment: Quantitative RT-PCR of ABA reporter genes in seedlings. The settings on record: 100 μM fenhexamid for 6 hours, liquid culture; two independent transgenic lines; FIG. 5. It is filed as in vivo, Arabidopsis. As for the experimental part: FIG. 5. Characterization of seedling transcriptional responses to fenhexamid in 35S::GFP-PYL2 K64R, Y124H, M164I, V67I, V114I transgenic plants. GFP-expressing T2 seedlings from respective lines were isolated after germination on petri plates and pre-screened by epi-fluorescence microscopy and subsequently grown in liquid media culture for 7 days, after which seedlings were treated with either 100 μM fenhexamid or control (0.1% DMSO) for 6 hours. RNA was subsequently isolated from the samples and utilized in quantitative RT-PCR experiments using three well-characterized ABA responsive transcripts (as described previously, Park et al., 2009). The primer sequences used for RT-PCR analysis were obtained from Roche and synthesized by Invitrogen. Quantitative RT-PCR was performed using SybrGreen on a BioRad CFX 96 real-time PCR instrument. mRNA copy number is expressed as copy number per nanogram total RNA. Data was normalized using an ACT2 gene. Copy number was established using a standard curve of known concentration of the target genes. […]
To further investigate ABA-response activation, we next tested GFP^+ transgenics (T2 segregants) and appropriate controls for activation of 3 ABA reporter genes (P5CS1, RD29A, and NCED3) in response to exposure to fenhexamid in liquid culture using quantitative RT-PCR methods. […]

T3 sequence (Q9CAJ0 23-511): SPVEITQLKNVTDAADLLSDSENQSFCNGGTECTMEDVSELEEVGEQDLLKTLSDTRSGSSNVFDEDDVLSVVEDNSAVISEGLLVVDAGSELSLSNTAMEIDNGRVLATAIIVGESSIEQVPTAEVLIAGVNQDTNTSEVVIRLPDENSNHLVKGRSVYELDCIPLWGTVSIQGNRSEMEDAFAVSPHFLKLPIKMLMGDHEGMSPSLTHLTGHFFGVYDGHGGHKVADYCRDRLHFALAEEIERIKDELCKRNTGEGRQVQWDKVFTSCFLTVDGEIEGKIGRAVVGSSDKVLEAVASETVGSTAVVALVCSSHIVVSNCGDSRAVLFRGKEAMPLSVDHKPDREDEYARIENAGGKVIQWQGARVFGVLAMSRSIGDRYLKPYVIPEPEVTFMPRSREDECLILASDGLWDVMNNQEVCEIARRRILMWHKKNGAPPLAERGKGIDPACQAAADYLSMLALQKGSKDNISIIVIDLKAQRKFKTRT
T3 sequence (O80992 whole entry K64R/V67I/V114I/Y124H/M164I): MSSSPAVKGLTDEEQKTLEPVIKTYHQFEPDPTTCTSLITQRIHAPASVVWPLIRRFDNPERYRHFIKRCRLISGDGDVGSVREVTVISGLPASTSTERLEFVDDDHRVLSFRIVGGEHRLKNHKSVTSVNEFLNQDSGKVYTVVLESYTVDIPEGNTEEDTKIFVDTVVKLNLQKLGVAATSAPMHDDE
T1 sequence (O49686 whole entry S47P/K59R/Y120H): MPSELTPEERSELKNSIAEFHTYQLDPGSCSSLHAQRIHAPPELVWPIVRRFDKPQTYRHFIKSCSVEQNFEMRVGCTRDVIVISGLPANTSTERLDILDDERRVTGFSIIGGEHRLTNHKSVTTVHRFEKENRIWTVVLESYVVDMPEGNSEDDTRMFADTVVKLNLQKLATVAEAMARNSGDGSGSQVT
T1 sequence (Q9CAJ0 23-511, stated change not applied, further chain): as the sequence (Q9CAJ0 23-511) above
T2 sequence (O80992 whole entry K64R/Y124H/M164I): as the sequence (O80992 whole entry K64R/V67I/V114I/Y124H/M164I) above, with I67V, I114V counted along it

Regarding `CC1(C(=O)Nc2ccc(O)c(Cl)c2Cl)CCCCC1` [fenhexamid], the “Receptor activation (inhibition of PP2C activity)” value in assay [1] is given as “activated”. The “fenhexamid responsiveness (yeast two-hybrid)” value at PYL2 K64R,Y124H,M164I is “does not show fenhexamid responsiveness”. Further, in assay [2], the “Response to fenhexamid in yeast assays” value is “respond”. In addition, the “Activation of 3 ABA reporter genes (P5CS1, RD29A, and NCED3)” value in assay [3] is given as “substantial induction”.
